Test results as given in PubChem BioAssay AID2060489 (Molecular Pharmacology Branch, DTP, NCI, 2025).

System: 922993-354-T-J3-PDC complex spheroids, viability
Experiment: Anticancer human tumor 922993-354-T-J3-PDC patient-derived endometrial carcinoma cell line growth inhibition [GQUAD]
Conditions: for IC50: curve of first compound; for viability, T/C: stronger effect = lower value
How it was run: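 Multi-cell-type spheroids of tumor cells with HUVEC and mesenchymal stem cells, treated with drug combinations. Concentrations descend in half-log steps from near clinical Cmax, or from 10 microM where Cmax is unknown; viability read-out.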

[1] = second compound 0.0316 µM, first compound 0.0316 µM
[2] = second compound 0.0316 µM, first compound 0.1 µM
[3] = second compound 0.0316 µM, first compound 0.316 µM
[4] = second compound 0.0316 µM, first compound 1 µM
[5] = second compound 0.0316 µM, first compound 3.16 µM
[6] = second compound 0.0316 µM, first compound 10 µM
[7] = second compound 0.1 µM, first compound 0.0316 µM
[8] = second compound 0.1 µM, first compound 0.1 µM
[9] = second compound 0.1 µM, first compound 0.316 µM
[10] = second compound 0.1 µM, first compound 1 µM
[11] = second compound 0.1 µM, first compound 3.16 µM
[12] = second compound 0.1 µM, first compound 10 µM
[13] = second compound 0.316 µM, first compound 0.0316 µM
[14] = second compound 0.316 µM, first compound 0.1 µM
[15] = second compound 0.316 µM, first compound 0.316 µM
[16] = second compound 0.316 µM, first compound 1 µM
[17] = second compound 0.316 µM, first compound 3.16 µM
[18] = second compound 0.316 µM, first compound 10 µM
[19] = second compound 1 µM, first compound 0.0316 µM
[20] = second compound 1 µM, first compound 0.1 µM
[21] = second compound 1 µM, first compound 0.316 µM
[22] = second compound 1 µM, first compound 1 µM
[23] = second compound 1 µM, first compound 3.16 µM
[24] = second compound 1 µM, first compound 10 µM
[25] = second compound 3.16 µM, first compound 0.0316 µM
[26] = second compound 3.16 µM, first compound 0.1 µM
[27] = second compound 3.16 µM, first compound 0.316 µM
[28] = second compound 3.16 µM, first compound 1 µM
[29] = second compound 3.16 µM, first compound 3.16 µM
[30] = second compound 3.16 µM, first compound 10 µM
[31] = second compound 10 µM, first compound 0.0316 µM
[32] = second compound 10 µM, first compound 0.1 µM
[33] = second compound 10 µM, first compound 0.316 µM
[34] = second compound 10 µM, first compound 1 µM
[35] = second compound 10 µM, first compound 3.16 µM
[36] = second compound 10 µM, first compound 10 µM
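Also: spheroids exposed to compounds for seven days.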
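For viability, T/C in this document: 100% = DMSO vehicle control viability.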

CC(=O)O[C@H]1C(=O)[C@@]2(C)[C@H]([C@H](OC(=O)c3ccccc3)[C@]3(O)C[C@H](OC(=O)[C@H](O)[C@@H](NC(=O)c4ccccc4)c4ccccc4)C(C)=C1C3(C)C)[C@]1(OC(C)=O)CO[C@@H]1C[C@@H]2O + Cc1[nH]c2ccc(F)cc2c1-c1nc2c3cccnc3c3ncccc3c2[nH]1
IC50 (second compound 0.0316 µM): 6.76 µM
IC50 (second compound 0.1 µM): > 10 µM
IC50 (second compound 0.316 µM): > 10 µM
IC50 (second compound 1 µM): 9.27 µM
IC50 (second compound 3.16 µM): 8.19 µM
IC50 (second compound 10 µM): > 10 µM
viability, T/C [1]: 109%
viability, T/C [2]: 84.6%
viability, T/C [3]: 124%
viability, T/C [4]: 115%
viability, T/C [5]: 68.4%
viability, T/C [6]: 40.5%
viability, T/C [7]: 124%
viability, T/C [8]: 87.3%
viability, T/C [9]: 96.6%
viability, T/C [10]: 119%
viability, T/C [11]: 75.7%
viability, T/C [12]: 49.6%
viability, T/C [13]: 98.8%
viability, T/C [14]: 90.4%
viability, T/C [15]: 136%
viability, T/C [16]: 89.2%
viability, T/C [17]: 88.1%
viability, T/C [18]: 50.3%
viability, T/C [19]: 103%
viability, T/C [20]: 126%
viability, T/C [21]: 119%
viability, T/C [22]: 109%
viability, T/C [23]: 81.3%
viability, T/C [24]: 47.8%
viability, T/C [25]: 104%
viability, T/C [26]: 115%
viability, T/C [27]: 124%
viability, T/C [28]: 136%
viability, T/C [29]: 93.6%
viability, T/C [30]: 40.9%
viability, T/C [31]: 97.7%
viability, T/C [32]: 94%
viability, T/C [33]: 117%
viability, T/C [34]: 105%
viability, T/C [35]: 86.2%
viability, T/C [36]: 57.7%

COc1cc(C2c3cc4c(cc3C(OC3OC5COC(C)OC5C(O)C3O)C3COC(=O)C23)OCO4)cc(OC)c1O (centres undefined) + Cc1[nH]c2ccc(F)cc2c1-c1nc2c3cccnc3c3ncccc3c2[nH]1
IC50 (second compound 0.0316 µM): > 10 µM
IC50 (second compound 0.1 µM): > 10 µM
IC50 (second compound 0.316 µM): > 10 µM
IC50 (second compound 1 µM): > 10 µM
IC50 (second compound 3.16 µM): > 10 µM
IC50 (second compound 10 µM): > 10 µM
viability, T/C [1]: 95.3%
viability, T/C [2]: 89.1%
viability, T/C [3]: 83.8%
viability, T/C [4]: 99.4%
viability, T/C [5]: 76.6%
viability, T/C [6]: 61.3%
viability, T/C [7]: 113%
viability, T/C [8]: 97.5%
viability, T/C [9]: 92.2%
viability, T/C [10]: 92.6%
viability, T/C [11]: 76.2%
viability, T/C [12]: 62.7%
viability, T/C [13]: 110%
viability, T/C [14]: 109%
viability, T/C [15]: 84.1%
viability, T/C [16]: 110%
viability, T/C [17]: 56.4%
viability, T/C [18]: 61.8%
viability, T/C [19]: 138%
viability, T/C [20]: 121%
viability, T/C [21]: 96.6%
viability, T/C [22]: 75.8%
viability, T/C [23]: 72.4%
viability, T/C [24]: 71.4%
viability, T/C [25]: 125%
viability, T/C [26]: 109%
viability, T/C [27]: 76.2%
viability, T/C [28]: 97.6%
viability, T/C [29]: 72.3%
viability, T/C [30]: 60.5%
viability, T/C [31]: 111%
viability, T/C [32]: 97.7%
viability, T/C [33]: 79.1%
viability, T/C [34]: 82.8%
viability, T/C [35]: 74.2%
viability, T/C [36]: 58.8%
